EC50 data for 21 compounds are collected here from US10058550B2, “Methods of treating heart failure” (priority 2015, dated 2018).

By pEC50 is commonly meant the negative decadic logarithm of the EC50, by convention in mol/L.

This test deals with human APJ receptor (Homo sapiens (Human), UniProt P35414). Description: biochemical. The format is biochemical. The conditions noted are these: read-out: Activity hAPJ SPA EC50 IP. In outline: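 Membranes from CHO cells stably expressing cloned human APJ were incubated with WGA SPA beads in 20 mM HEPES pH 7.5, 5 mM MgCl2, 0.1% BSA, 200 mM NaCl and 3 μM GDP. Reaction started with 0.2 nM [35S]GTPγS ± ligands, 90 min at RT. EC50 obtained by non-linear regression as mean of independent experiments.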
human APJ receptor, sequence (P35414 whole entry): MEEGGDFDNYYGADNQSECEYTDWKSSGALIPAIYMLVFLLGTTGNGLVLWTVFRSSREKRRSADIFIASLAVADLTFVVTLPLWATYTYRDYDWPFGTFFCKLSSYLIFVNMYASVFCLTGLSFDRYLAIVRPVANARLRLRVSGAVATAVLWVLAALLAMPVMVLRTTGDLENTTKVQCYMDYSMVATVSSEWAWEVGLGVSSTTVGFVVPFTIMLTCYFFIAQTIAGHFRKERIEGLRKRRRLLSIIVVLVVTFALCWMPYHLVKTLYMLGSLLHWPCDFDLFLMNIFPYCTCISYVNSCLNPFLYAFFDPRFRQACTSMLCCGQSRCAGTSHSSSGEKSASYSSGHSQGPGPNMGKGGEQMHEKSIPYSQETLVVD

pEC50: −log10 of the molar value.

As to `COc1ncnc(OC)c1-n1c(NS(=O)(=O)[C@@H]2C[C@@H](OC)CN(c3ncc(F)cn3)C2)nnc1-c1cccnc1` (single isomer, unassigned) [Example 812.0, (3S,5S)—N-(4-(4,6-dimethoxy-5-pyrimidinyl)-5-(3-pyridinyl)-4H-1,2,4-triazol-3-yl)-1-(5-fluoro-2-pyrimidinyl)-5-methoxy-3-piperidinesulfonamide or (3R,5R)—N-(4-(4,6-dimethoxy-5-pyrimidinyl)-5-(3-pyridinyl)-4H-1,2,4-triazol-3-yl)-1-(5-fluoro-2-pyrimidinyl)-5-methoxy-3-piperidinesulfonamide], the pEC50 was 6.64. Consider `Cc1cnc([C@@H](C)[C@H](C)S(=O)(=O)Nc2nnc(-c3cncc(C)c3)n2-c2c(F)cccc2F)nc1` (single isomer, unassigned) [Example 826.0], for which the negative logarithm of the EC50 (pEC50) was 8.77. Turning to `COc1cccc(-c2nnc(NS(=O)(=O)[C@@H]3CCCN(c4ncc(Cl)cn4)C3)n2-c2c(OC)ncnc2OC)n1` (single isomer, unassigned) [Example 830.0], the pEC50 was 7.85. With `COc1ncnc(OC)c1-n1c(NS(=O)(=O)[C@@H]2C[C@H](OC)CN(c3ncc(F)cn3)C2)nnc1-c1cccnc1` (stereo in doubt) [Example 813.0, (3S,5R)-N-(4-(4,6-dimethoxy-5-pyrimidinyl)-5-(3-pyridinyl)-4H-1,2,4-triazol-3-yl)-1-(5-fluoro-2-pyrimidinyl)-5-methoxy-3-piperidinesulfonamide, (3R,5S)-N-(4-(4,6-dimethoxy-5-pyrimidinyl)-5-(3-pyridinyl)-4H-1,2,4-triazol-3-yl)-1-(5-fluoro-2-pyrimidinyl)-5-methoxy-3-piperidinesulfonamide] the figure was 6.85; with `COc1ncnc(OC)c1-n1c(NS(=O)(=O)[C@@H]2C[C@H](OC)CN(c3ncc(F)cn3)C2)nnc1-c1cccnc1` (stereo in doubt) [Example 814.0, (3R,5S)-N-(4-(4,6-dimethoxy-5-pyrimidinyl)-5-(3-pyridinyl)-4H-1,2,4-triazol-3-yl)-1-(5-fluoro-2-pyrimidinyl)-5-methoxy-3-piperidinesulfonamide, (3R,5S)-N-(4-(4,6-dimethoxy-5-pyrimidinyl)-5-(3-pyridinyl)-4H-1,2,4-triazol-3-yl)-1-(5-fluoro-2-pyrimidinyl)-5-methoxy-3-piperidinesulfonamide], 6.25; with `COc1ncnc(OC)c1-n1c(NS(=O)(=O)[C@@H]2C[C@@H](OC)CN(c3ncc(F)cn3)C2)nnc1-c1cccnc1` (stereo in doubt) [Example 815.0, (3S,5S)-N-(4-(4,6-dimethoxy-5-pyrimidinyl)-5-(3-pyridinyl)-4H-1,2,4-triazol-3-yl)-1-(5-fluoro-2-pyrimidinyl)-5-methoxy-3-piperidinesulfonamide, (3R,5R)-N-(4-(4,6-dimethoxy-5-pyrimidinyl)-5-(3-pyridinyl)-4H-1,2,4-triazol-3-yl)-1-(5-fluoro-2-pyrimidinyl)-5-methoxy-3-piperidinesulfonamide], 6.77.

`COc1cccc(OC)c1-n1c(NS(=O)(=O)[C@@H]2C[C@@H](OC)CN(c3ncc(F)cn3)C2)nnc1-c1cccnc1` (stereo in doubt) [Example 816.0, (3S,5S)-N-(4-(2,6-dimethoxyphenyl)-5-(3-pyridinyl)-4H-1,2,4-triazol-3-yl)-1-(5-fluoro-2-pyrimidinyl)-5-methoxy-3-piperidinesulfonamide, (3R,5R)-N-(4-(2,6-dimethoxyphenyl)-5-(3-pyridinyl)-4H-1,2,4-triazol-3-yl)-1-(5-fluoro-2-pyrimidinyl)-5-methoxy-3-piperidinesulfonamide]: the pEC50 is 7.74. For `COc1cccc(OC)c1-n1c(NS(=O)(=O)[C@@H]2C[C@H](OC)CN(c3ncc(F)cn3)C2)nnc1-c1cccnc1` (stereo in doubt) [Example 817.0, (3R,5S)-N-(4-(2,6-dimethoxyphenyl)-5-(3-pyridinyl)-4H-1,2,4-triazol-3-yl)-1-(5-fluoro-2-pyrimidinyl)-5-methoxy-3-piperidinesulfonamide, (3S,5R)-N-(4-(2,6-dimethoxyphenyl)-5-(3-pyridinyl)-4H-1,2,4-triazol-3-yl)-1-(5-fluoro-2-pyrimidinyl)-5-methoxy-3-piperidinesulfonamide], the pEC50 is 7.80.

Turning to `COc1cccc(OC)c1-n1c(NS(=O)(=O)[C@@H]2C[C@H](OC)CN(c3ncc(F)cn3)C2)nnc1-c1cccnc1` (stereo in doubt) [Example 818.0, (3R,5S)-N-(4-(2,6-dimethoxyphenyl)-5-(3-pyridinyl)-4H-1,2,4-triazol-3-yl)-1-(5-fluoro-2-pyrimidinyl)-5-methoxy-3-piperidinesulfonamide, (3S,5R)-N-(4-(2,6-dimethoxyphenyl)-5-(3-pyridinyl)-4H-1,2,4-triazol-3-yl)-1-(5-fluoro-2-pyrimidinyl)-5-methoxy-3-piperidinesulfonamide], the pEC50 is 6.96. With `COc1cccc(OC)c1-n1c(NS(=O)(=O)[C@@H]2C[C@@H](OC)CN(c3ncc(F)cn3)C2)nnc1-c1cccnc1` (stereo in doubt) [Example 819.0, (3S,5S)-N-(4-(2,6-dimethoxyphenyl)-5-(3-pyridinyl)-4H-1,2,4-triazol-3-yl)-1-(5-fluoro-2-pyrimidinyl)-5-methoxy-3-piperidinesulfonamide, (3R,5R)-N-(4-(2,6-dimethoxyphenyl)-5-(3-pyridinyl)-4H-1,2,4-triazol-3-yl)-1-(5-fluoro-2-pyrimidinyl)-5-methoxy-3-piperidinesulfonamide] the figure was 7.48; with `COc1cccc(OC)c1-n1c(NS(=O)(=O)[C@H](C)[C@H](OC(C)C)c2cn3ccccc3n2)nnc1-c1cccnc1` (stereo in doubt) [Example 827.0, (1R,2R)-N-(4-(2,6-dimethoxyphenyl)-5-(3-pyridinyl)-4H-1,2,4-triazol-3-yl)-1-imidazo[1,2-a]pyridin-2-yl-1-(1-methylethoxy)-2-propanesulfonamide, (1S,2S)-N-(4-(2,6-dimethoxyphenyl)-5-(3-pyridinyl)-4H-1,2,4-triazol-3-yl)-1-imidazo[1,2-a]pyridin-2-yl-1-(1-methylethoxy)-2-propanesulfonamide], 8.00; with `COc1cccc(OC)c1-n1c(NS(=O)(=O)[C@H](C)[C@H](OC(C)C)c2cn3ccccc3n2)nnc1-c1cccnc1` (stereo in doubt) [Example 828.0, (1R,2R)-N-(4-(2,6-dimethoxyphenyl)-5-(3-pyridinyl)-4H-1,2,4-triazol-3-yl)-1-imidazo[1,2-a]pyridin-2-yl-1-(1-methylethoxy)-2-propanesulfonamide, (1S,2S)-N-(4-(2,6-dimethoxyphenyl)-5-(3-pyridinyl)-4H-1,2,4-triazol-3-yl)-1-imidazo[1,2-a]pyridin-2-yl-1-(1-methylethoxy)-2-propanesulfonamide], 6.32. In the case of `COc1cccc(-c2nnc(NS(C)(=O)=O)n2-c2c(OC)cccc2OC)n1` [Example 4.02, N-(4-(2,6-dimethoxyphenyl)-5-(6-methoxypyridin-2-yl)-4H-1,2,4-triazol-3-yl)methanesulfonamide], the pEC50 is 6.66. With `CCS(=O)(=O)Nc1nnc(-c2cccc(OC)n2)n1-c1c(OC)cccc1OC` [Example 29.0, N-(4-(2,6-dimethoxyphenyl)-5-(6-methoxypyridin-2-yl)-4H-1,2,4-triazol-3-yl)ethanesulfonamide], the pEC50 was 6.82. Take `CCS(=O)(=O)Nc1nnc(-c2cccc(C)n2)n1-c1c(OC)cccc1OC` [Example 30.0, N-(4-(2,6-dimethoxyphenyl)-5-(6-methylpyridin-2-yl)-4H-1,2,4-triazol-3-yl)ethanesulfonamide]: the pEC50 is 6.08. Regarding `COc1cccc(-c2nnc(NS(=O)(=O)[C@@H](C)[C@H](OC)c3ncc(C)cn3)n2-c2cccnc2)n1` [Example 33.0, (1R,2S)-1-methoxy-N-(5-(6-methoxypyridin-2-yl)-4-(pyridin-3-yl)-4H-1,2,4-triazol-3-yl)-1-(5-methylpyrimidin-2-yl)propane-2-sulfonamide], the pEC50 was 7.25. Regarding `COc1cccc(-c2nnc(NS(=O)(=O)[C@@H](C)[C@H](OC)c3ncc(C)cn3)n2-c2ccccc2)n1` [Example 34.0, (1R,2S)-1-methoxy-N-(5-(6-methoxypyridin-2-yl)-4-phenyl-4H-1,2,4-triazol-3-yl)-1-(5-methylpyrimidin-2-yl)propane-2-sulfonamide], the pEC50 is 8.38. With `COc1cccc(-c2nnc(NS(=O)(=O)[C@@H](C)[C@H](OC)c3ncc(C)cn3)n2-c2c(OC)ncnc2OC)n1` [Example 35.0, (1R,2S)-N-(4-(4,6-dimethoxypyrimidin-5-yl)-5-(6-methoxypyridin-2-yl)-4H-1,2,4-triazol-3-yl)-1-methoxy-1-(5-methylpyrimidin-2-yl)propane-2-sulfonamide] the figure was 9.27; with `COc1cccc(-c2nnc(NS(=O)(=O)[C@@H](C)[C@H](OC)c3ncc(C)cn3)n2-c2cc(C(F)(F)F)cc(C(F)(F)F)c2)n1` [Example 39.0, (1R,2S)-N-(4-(3,5-bis(trifluoromethyl)phenyl)-5-(6-methoxypyridin-2-yl)-4H-1,2,4-triazol-3-yl)-1-methoxy-1-(5-methylpyrimidin-2-yl)propane-2-sulfonamide], 6.27. In the case of `COc1cccc(-c2nnc(NS(=O)(=O)[C@@H](C)[C@H](OC)c3ncc(C)cn3)n2-c2c(OC(F)F)cccc2OC(F)F)n1` [Example 41.0, (1R,2S)-N-(4-(2,6-bis(difluoromethoxy)phenyl)-5-(6-methoxypyridin-2-yl)-4H-1,2,4-triazol-3-yl)-1-methoxy-1-(5-methylpyrimidin-2-yl)propane-2-sulfonamide], the pEC50 was 9.66.

As to `COc1cccc(-c2nnc(NS(=O)(=O)[C@@H](C)[C@H](OC)c3ncc(C)cn3)n2-c2ccncc2)n1` [Example 42.0, (1R,2S)-1-methoxy-N-(5-(6-methoxypyridin-2-yl)-4-(pyridin-4-yl)-4H-1,2,4-triazol-3-yl)-1-(5-methylpyrimidin-2-yl)propane-2-sulfonamide], the pEC50 is 7.29.
